Data from US20080234332A1, “RAF KINASE INHIBITORS CONTAINING A ZINC BINDING MOIETY” (priority 2007, published 2008).

Tests used:
Type in all cases: biochemical
HDAC = HDAC fluorimetric assay kit (HeLa nuclear extract); settings: read-out: HDAC IC50 grade
Protocol: HDAC inhibitors were screened using an HDAC fluorimetric assay kit (AK-500, Biomol, Plymouth Meeting, Pa.). […] Each assay was setup as follows: Defrosted all kit components and kept on ice until use. Diluted HeLa nuclear extract 1:29 in assay buffer (50 mM Tris/Cl, pH 8.0, 137 mM NaCl, 2.7 mM KCl, 1 mM MgCl2). Prepared dilutions of Trichostatin A (TSA, positive control) and tested compounds in assay buffer (5× of final concentration). Diluted Fluor de LysTM Substrate in assay buffer to 100 uM (50 fold=2× final). Diluted Fluor de LysTM developer concentrate 20-fold (e.g. 50 μl plus 950 μl assay buffer) in cold assay buffer. Second, diluted the 0.2 mM Trichostatin A 100-fold in the 1× Developer (e.g. 10 μl in 1 ml; final Trichostatin A concentration in the 1× Developer=2 μM; final concentration after addition to HDAC/Substrate reaction=1 μM). Added assay buffer, diluted trichostatin A or test inhibitor to appropriate wells of the microtiter plate. Added diluted HeLa extract or other HDAC sample to all wells except for negative controls. Allowed diluted Fluor de LysTM Substrate and the samples in the microtiter plate to equilibrate to assay temperature (e.g. 25 or 37° C. Initiated HDAC reactions by adding diluted substrate (25 μl) to each well and mixing thoroughly. Allowed HDAC reactions to proceed for 1 hour and then stopped them by addition of Fluor de LysTM Developer (50 μl). Incubated plate at room temperature (25° C.) for 10-15 min. Read samples in a microtiter-plate reading fluorimeter capable of excitation at a wavelength in the range 350-380 nm and detection of emitted light in the range 440-460 nm.
(§1) The following TABLE B lists compounds representative of the invention and their activity in HDAC, VEGFR2 and RAF assays.

VEGFR2 = target: T1, VEGFR2 (Homo sapiens, UniProt P35968); assay: HTScan VEGFR2 Kinase Assay (DELFIA); settings: 200 μM ATP; read-out: VEGFR2 IC50 grade
T1 construct: GST (N); His6 (N); Thrombin cleavage site (N); purchased Cell Signaling Technologies; host or cells: baculovirus expression system
T1 sequence (P35968 805-1356): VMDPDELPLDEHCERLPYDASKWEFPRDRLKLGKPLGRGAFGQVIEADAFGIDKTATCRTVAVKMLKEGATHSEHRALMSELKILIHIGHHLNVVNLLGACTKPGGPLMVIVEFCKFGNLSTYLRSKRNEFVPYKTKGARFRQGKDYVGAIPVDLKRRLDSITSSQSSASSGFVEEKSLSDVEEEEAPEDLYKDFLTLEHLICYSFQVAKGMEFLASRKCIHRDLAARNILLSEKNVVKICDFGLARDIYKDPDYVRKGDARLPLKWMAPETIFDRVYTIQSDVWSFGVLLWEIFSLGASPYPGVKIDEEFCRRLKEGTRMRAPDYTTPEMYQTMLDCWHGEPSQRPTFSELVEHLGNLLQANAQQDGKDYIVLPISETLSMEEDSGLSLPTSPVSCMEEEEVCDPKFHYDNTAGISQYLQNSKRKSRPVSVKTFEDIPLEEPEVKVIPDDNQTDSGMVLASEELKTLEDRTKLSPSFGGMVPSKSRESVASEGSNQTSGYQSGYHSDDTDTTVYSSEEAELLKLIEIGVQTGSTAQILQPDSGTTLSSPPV
Protocol: The ability of compounds to inhibit VEGFR2 kinase activity was assayed using HTScan™ VEGFR2 Kinase Assay Kits (Cell Signaling Technologies, Danvers, Mass.). […] The protein was purified by one-step affinity chromatography using glutathione-agarose.
Immediately transfer enzyme from −80° C. to ice. Allowed enzyme to thaw on ice. […] Returned immediately to ice. […] Incubated reaction plate at room temperature for 30 minutes. […] Added 100 μl/well primary antibody. Incubated at room temperature for 60 minutes. […] Added 100 μl/well diluted antibody. Incubated at room temperature for 30 minutes. […] Incubated at room temperature for 5 minutes.
as §1

cKit = cKit (Homo sapiens, UniProt P10721); assay: cKit kinase inhibition (Table B); settings: read-out: cKit IC50 grade
Sequence of cKit (P10721 26-976): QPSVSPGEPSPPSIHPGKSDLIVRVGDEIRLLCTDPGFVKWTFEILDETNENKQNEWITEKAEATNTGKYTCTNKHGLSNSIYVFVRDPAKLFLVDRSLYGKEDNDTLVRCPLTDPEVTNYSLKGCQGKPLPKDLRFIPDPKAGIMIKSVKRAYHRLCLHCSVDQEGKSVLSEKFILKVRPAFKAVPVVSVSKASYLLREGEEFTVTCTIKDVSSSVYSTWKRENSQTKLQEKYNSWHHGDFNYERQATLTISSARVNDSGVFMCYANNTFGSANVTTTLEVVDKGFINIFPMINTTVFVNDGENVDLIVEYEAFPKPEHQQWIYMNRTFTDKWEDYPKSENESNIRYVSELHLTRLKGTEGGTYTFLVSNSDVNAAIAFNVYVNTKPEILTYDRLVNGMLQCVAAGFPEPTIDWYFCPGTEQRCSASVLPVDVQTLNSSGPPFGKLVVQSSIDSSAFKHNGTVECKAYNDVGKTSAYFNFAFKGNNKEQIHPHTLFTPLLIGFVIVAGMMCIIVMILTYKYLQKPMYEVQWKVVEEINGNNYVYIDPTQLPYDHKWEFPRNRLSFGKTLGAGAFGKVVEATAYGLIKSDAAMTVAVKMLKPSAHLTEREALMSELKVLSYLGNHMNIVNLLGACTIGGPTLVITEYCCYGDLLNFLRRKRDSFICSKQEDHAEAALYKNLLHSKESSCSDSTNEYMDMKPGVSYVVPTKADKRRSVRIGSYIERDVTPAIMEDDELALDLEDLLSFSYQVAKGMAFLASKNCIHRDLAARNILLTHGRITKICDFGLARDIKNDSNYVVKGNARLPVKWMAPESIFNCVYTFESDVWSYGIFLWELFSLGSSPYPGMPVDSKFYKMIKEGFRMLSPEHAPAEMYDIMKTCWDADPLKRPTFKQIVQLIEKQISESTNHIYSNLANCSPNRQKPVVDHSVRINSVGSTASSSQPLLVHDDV

C-Raf = C-Raf (Homo sapiens, UniProt P04049); assay: Raf kinase assay (C-Raf kit, MEK-1 substrate, dot blot); settings: 250 μM ATP; read-out: C-Raf IC50 grade
Sequence of C-Raf (P04049 whole entry Y340D/Y341D, form open): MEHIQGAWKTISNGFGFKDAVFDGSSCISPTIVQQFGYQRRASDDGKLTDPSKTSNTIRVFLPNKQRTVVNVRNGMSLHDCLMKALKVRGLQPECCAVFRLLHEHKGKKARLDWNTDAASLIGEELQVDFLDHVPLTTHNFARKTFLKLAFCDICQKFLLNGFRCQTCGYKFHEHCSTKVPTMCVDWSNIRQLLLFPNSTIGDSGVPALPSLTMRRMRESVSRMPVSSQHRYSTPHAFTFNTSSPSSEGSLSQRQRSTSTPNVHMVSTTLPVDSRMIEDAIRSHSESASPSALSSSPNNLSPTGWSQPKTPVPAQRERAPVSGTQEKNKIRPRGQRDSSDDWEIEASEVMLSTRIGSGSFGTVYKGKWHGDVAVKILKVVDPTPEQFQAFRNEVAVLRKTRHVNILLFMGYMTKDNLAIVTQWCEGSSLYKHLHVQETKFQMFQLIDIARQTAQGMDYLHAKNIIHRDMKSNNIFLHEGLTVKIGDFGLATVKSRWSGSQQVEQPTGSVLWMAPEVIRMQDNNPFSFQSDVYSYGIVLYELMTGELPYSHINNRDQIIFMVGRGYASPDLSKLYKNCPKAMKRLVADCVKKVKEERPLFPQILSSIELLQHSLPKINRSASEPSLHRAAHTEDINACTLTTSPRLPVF
Protocol: (§2) The Raf kinase assay was performed by following the protocol of Raf kinase assay kit (B-Raf, Upstate, catalog# 17-359; C-Raf, Upstate, catalog# 17-360) with modifications. Briefly, assay buffer, ATP, substrate and Raf kinase were mixed in a 96 well assay plate. The final kinase assay mixture contained 20 mM MOPS, pH7.2, 25 mM β-glycerol phosphate, 5 mM EGTA, 1 mM sodium orthovanadate, 1 mM DTT, 250 μM ATP and 37.5 mM magnesium chloride, 0.1 μg/well of Raf kinase, and 1 μg/well of MEK-1 substrate protein. Assay samples were incubated for 30 min at room temperature. The kinase reaction was stopped by adding EDTA, pH8 to a final concentration of 25 mM. A 10 μl of the reaction sample was spotted onto nitrocellulose filter and dot blot was performed by adding 1 μg/ml of anti-phospho-MEK-1 antibody in the blocking solution (Licor Bioscience, catalogue # 927-40000). The nitrocellulose filter was subsequently incubated with secondary IRDye 800CW goat anti-rabbit antibody (Licor Bioscience, catalogue # 926-32211) before reading the signal on an Odyssey imager (Licor Bioscience).
as §1

PDGFRβ = PDGFRβ (Homo sapiens, UniProt P09619); assay: PDGFRβ kinase inhibition (Table B); settings: read-out: PDGFRβ IC50 grade
Sequence of PDGFRβ (P09619 33-1106, species assumed): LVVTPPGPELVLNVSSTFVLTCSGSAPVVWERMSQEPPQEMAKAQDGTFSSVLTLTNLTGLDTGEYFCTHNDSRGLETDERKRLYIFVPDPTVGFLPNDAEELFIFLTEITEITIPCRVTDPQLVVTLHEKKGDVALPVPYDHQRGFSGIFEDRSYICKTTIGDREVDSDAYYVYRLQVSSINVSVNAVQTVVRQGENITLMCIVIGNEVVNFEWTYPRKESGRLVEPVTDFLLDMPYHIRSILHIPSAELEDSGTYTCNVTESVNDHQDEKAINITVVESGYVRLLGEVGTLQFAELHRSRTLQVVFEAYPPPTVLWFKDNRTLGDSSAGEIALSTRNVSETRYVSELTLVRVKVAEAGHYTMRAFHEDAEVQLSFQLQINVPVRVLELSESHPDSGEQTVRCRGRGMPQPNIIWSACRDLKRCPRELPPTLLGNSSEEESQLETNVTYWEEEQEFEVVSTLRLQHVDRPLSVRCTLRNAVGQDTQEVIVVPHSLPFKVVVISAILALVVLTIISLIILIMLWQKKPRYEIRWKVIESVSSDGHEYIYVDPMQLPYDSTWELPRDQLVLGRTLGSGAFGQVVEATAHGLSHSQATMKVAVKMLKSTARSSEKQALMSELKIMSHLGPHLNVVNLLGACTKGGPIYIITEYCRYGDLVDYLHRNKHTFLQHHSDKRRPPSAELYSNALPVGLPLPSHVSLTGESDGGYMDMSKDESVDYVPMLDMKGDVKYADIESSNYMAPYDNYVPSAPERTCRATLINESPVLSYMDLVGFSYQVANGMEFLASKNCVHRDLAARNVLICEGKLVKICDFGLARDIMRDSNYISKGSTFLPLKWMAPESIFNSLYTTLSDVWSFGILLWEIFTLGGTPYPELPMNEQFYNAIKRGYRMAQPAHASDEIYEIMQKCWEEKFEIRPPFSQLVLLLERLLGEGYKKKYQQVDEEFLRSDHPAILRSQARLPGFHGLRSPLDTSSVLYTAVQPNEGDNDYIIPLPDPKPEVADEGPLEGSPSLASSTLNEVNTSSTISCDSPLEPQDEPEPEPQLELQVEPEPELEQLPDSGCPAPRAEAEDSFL

B-Raf = target: T2, B-Raf (Homo sapiens, UniProt P15056); assay: Raf kinase assay (B-Raf kit, MEK-1 substrate, dot blot); settings: 250 μM ATP; read-out: B-Raf IC50 grade
T2 construct: purchased Upstate 17-359
T2 sequence (P15056 whole entry): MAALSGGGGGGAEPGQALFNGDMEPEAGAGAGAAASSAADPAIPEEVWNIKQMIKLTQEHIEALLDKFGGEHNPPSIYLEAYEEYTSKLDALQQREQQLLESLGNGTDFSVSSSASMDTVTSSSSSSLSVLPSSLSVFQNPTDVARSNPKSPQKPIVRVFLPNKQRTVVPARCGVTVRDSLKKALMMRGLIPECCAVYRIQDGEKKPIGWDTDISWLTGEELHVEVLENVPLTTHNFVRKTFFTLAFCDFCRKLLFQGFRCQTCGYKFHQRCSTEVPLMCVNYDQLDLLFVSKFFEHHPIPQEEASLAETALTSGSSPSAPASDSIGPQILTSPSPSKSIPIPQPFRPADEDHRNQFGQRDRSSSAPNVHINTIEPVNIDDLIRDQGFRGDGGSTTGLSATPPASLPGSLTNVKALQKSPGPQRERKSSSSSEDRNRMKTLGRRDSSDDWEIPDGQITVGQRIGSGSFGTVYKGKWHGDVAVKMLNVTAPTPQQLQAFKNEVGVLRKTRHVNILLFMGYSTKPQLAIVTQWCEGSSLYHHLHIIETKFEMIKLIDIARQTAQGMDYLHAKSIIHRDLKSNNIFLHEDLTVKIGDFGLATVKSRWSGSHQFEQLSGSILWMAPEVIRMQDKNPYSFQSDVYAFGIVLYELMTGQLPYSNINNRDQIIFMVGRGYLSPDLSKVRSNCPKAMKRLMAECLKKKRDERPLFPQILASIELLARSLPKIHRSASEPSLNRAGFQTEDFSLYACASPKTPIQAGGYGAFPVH
Protocol: as §2, §1

For `O=C(CCCCCNCc1cc(Oc2ccc(NC(=O)Nc3ccc(Cl)c(C(F)(F)F)c3)cc2)ccn1)NO` [Compound 16, 6-((4-(4-(3-(4-chloro-3-(trifluoromethyl)phenyl)ureido)phenoxy)pyridin-2-yl)methylamino)-N-hydroxyhexanamide], the IC50 (HDAC) was 100 to 1000 nM.
With `O=C(CCCCCn1ccc(Oc2ccc(NC(=O)Nc3ccc(Cl)c(C(F)(F)F)c3)cc2)cc1=O)NO` [Compound 27] the IC50 (HDAC) was 100 to 1000 nM.
In the case of `O=C(CCCCOc1cc(Oc2ccc(NC(=O)Nc3ccc(Cl)c(C(F)(F)F)c3)cc2)ccn1)NO` [Compound 32], the IC50 (HDAC) is reported as 100 to 1000 nM and the IC50 (VEGFR2) is reported as less than 100 nM.
With `O=C(CCCCn1ccc(Oc2ccc(NC(=O)Nc3ccc(Cl)c(C(F)(F)F)c3)cc2)cc1=O)NO` [Compound 26] the IC50 (HDAC) was 1000 to 10000 nM.
In the case of `O=C(Nc1ccc(Oc2ccnc(C(=O)NO)c2)cc1)Nc1ccc(Cl)c(C(F)(F)F)c1` [Compound 36, 4-(4-(3-(4-chloro-3-(trifluoromethyl)phenyl)ureido)phenoxy)-N-hydroxypicolinamide], the IC50 (HDAC) is reported as greater than 10000 nM and the IC50 (VEGFR2) is reported as 1000 to 10000 nM.
In the case of `O=C(CCCCC(=O)Nc1cc(Oc2ccc(NC(=O)Nc3ccc(Cl)c(C(F)(F)F)c3)cc2)ccn1)NO` [Compound 10, 1-(4-chloro-3-(trifluoromethyl)phenyl)-3-(4-(2-(6-(hydroxyamino)-6-oxohexanamido)pyridin-4-yloxy)phenyl)urea], the IC50 (HDAC) is reported as 1000 to 10000 nM.
`O=C(CCCCCNC(=O)c1cc(Oc2ccc(NC(=O)Nc3ccc(Cl)c(C(F)(F)F)c3)cc2)ccn1)NO` [Compound 5, 4-(4-(3-(4-Chloro-3-(trifluoromethyl)phenyl)ureido)phenoxy)-N-(6-(hydroxyamino)-6-oxohexyl)picolinamide] was tested, and the IC50 (cKit) was less than 100 nM, the IC50 (C-Raf) was 1000 to 10000 nM and the IC50 (HDAC) was 100 to 1000 nM. The IC50 (PDGFRβ) was 100 to 1000 nM, the IC50 (B-Raf) was 1000 to 10000 nM and the IC50 (VEGFR2) was less than 100 nM.
`O=C(CCCCCCCNC(=O)c1cc(Oc2ccc(NC(=O)Nc3ccc(Cl)c(C(F)(F)F)c3)cc2)ccn1)NO` [Compound 7, 4-(4-(3-(4-chloro-3-(trifluoromethyl)phenyl)ureido)phenoxy)-N-(8-(hydroxyamino)-8-oxooctyl)picolinamide] gave an IC50 (cKit) of less than 100 nM, an IC50 (HDAC) of 1000 to 10000 nM and an IC50 (PDGFRβ) of 100 to 1000 nM. For the same compound, the IC50 (VEGFR2) was 100 to 1000 nM.
Compound `O=C(CCCCCCn1ccc(Oc2ccc(NC(=O)Nc3ccc(Cl)c(C(F)(F)F)c3)cc2)cc1=O)NO` [Compound 28] has an IC50 (HDAC) of 100 to 1000 nM.
In the case of `O=C(CCCCCCC(=O)NCc1cc(Oc2ccc(NC(=O)Nc3ccc(Cl)c(C(F)(F)F)c3)cc2)ccn1)NO` [Compound 23, N^1-((4-(4-(3-(4-chloro-3(trifluoromethyl)phenyl)ureido)phenoxy)pyridin-2-yl)methyl)-N^8-hydroxyoctanediamide], the IC50 (cKit) is reported as less than 100 nM, the IC50 (HDAC) is reported as 100 to 1000 nM and the IC50 (PDGFRβ) is reported as 100 to 1000 nM. It also gave an IC50 (VEGFR2) of less than 100 nM.
In the case of `O=C(CCCCCCCNCc1cc(Oc2ccc(NC(=O)Nc3ccc(Cl)c(C(F)(F)F)c3)cc2)ccn1)NO` [Compound 18, 8-((4-(4-(3-(4-Chloro-3-(trifluoromethyl)phenyl)ureido)phenoxy)pyridin-2-yl)methylamino)-N-hydroxyoctanamide], the IC50 (HDAC) is reported as 100 to 1000 nM and the IC50 (VEGFR2) is reported as 100 to 1000 nM.
For `O=C(CCCC(=O)Nc1cc(Oc2ccc(NC(=O)Nc3ccc(Cl)c(C(F)(F)F)c3)cc2)ccn1)NO` [Compound 9, 1-(4-chloro-3-(trifluoromethyl)phenyl)-3-(4-(2-(5-(hydroxyamino)-5-oxopentanamido)pyridin-4-yloxy)phenyl)urea], the IC50 (HDAC) was 100 to 1000 nM and the IC50 (VEGFR2) was less than 100 nM.
In the case of `O=C(CCCNC(=O)c1cc(Oc2ccc(NC(=O)Nc3ccc(Cl)c(C(F)(F)F)c3)cc2)ccn1)NO` [Compound 3, 4-(4-(3-(4-chloro-3-(trifluoromethyl)phenyl)ureido)phenoxy)-N-(4-(hydroxyamino)-4-oxobutyl)picolinamide], the IC50 (HDAC) is reported as 1000 to 10000 nM.
Work on `O=C(CCCn1ccc(Oc2ccc(NC(=O)Nc3ccc(Cl)c(C(F)(F)F)c3)cc2)cc1=O)NO` [Compound 25] yielded an IC50 (HDAC) of 1000 to 10000 nM.
With `O=C(CCCCC(=O)NCc1cc(Oc2ccc(NC(=O)Nc3ccc(Cl)c(C(F)(F)F)c3)cc2)ccn1)NO` [Compound 21, N^1-((4-(4-(3-(4-chloro-3(trifluoromethyl)phenyl)ureido)phenoxy)pyridin-2-yl)methyl)-N^6-hydroxyadipamide] the IC50 (cKit) was less than 100 nM, the IC50 (HDAC) was 100 to 1000 nM and the IC50 (PDGFRβ) was 100 to 1000 nM. It also gave an IC50 (VEGFR2) of less than 100 nM.
Compound `C[C@@H](NC(=O)c1cc(Oc2ccc(NC(=O)Nc3ccc(Cl)c(C(F)(F)F)c3)cc2)ccn1)C(=O)NO` [Compound 1, (R)-4-(4-(3-(4-chloro-3-(trifluoromethyl)phenyl)ureido)phenoxy)-N-(1-(hydroxyamino)-1-oxopropan-2-yl)picolinamide] has an IC50 (HDAC) of 1000 to 10000 nM.
`O=C(CCCCCCNCc1cc(Oc2ccc(NC(=O)Nc3ccc(Cl)c(C(F)(F)F)c3)cc2)ccn1)NO` [Compound 17, 7-((4-(4-(3-(4-chloro-3-(trifluoromethyl)phenyl)ureido)phenoxy)pyridin-2-yl)methylamino)-N-hydroxyheptanamide] gave an IC50 (HDAC) of 100 to 1000 nM and an IC50 (VEGFR2) of 100 to 1000 nM.
`O=C(CCCCCCOc1cc(Oc2ccc(NC(=O)Nc3ccc(Cl)c(C(F)(F)F)c3)cc2)ccn1)NO` [Compound 34] gave an IC50 (HDAC) of 100 to 1000 nM.
`O=C(CCC(=O)NCc1cc(Oc2ccc(NC(=O)Nc3ccc(Cl)c(C(F)(F)F)c3)cc2)ccn1)NO` [Compound 19, N^1-((4-(4-(3-(4-chloro-3-(trifluoromethyl)phenyl)ureido)phenoxy)pyridin-2-yl)methyl)-N^4-hydroxysuccinamide] was tested, and the IC50 (HDAC) was 100 to 1000 nM.
With `O=C(CCCCCCNC(=O)c1cc(Oc2ccc(NC(=O)Nc3ccc(Cl)c(C(F)(F)F)c3)cc2)ccn1)NO` [Compound 6, 4-(4-(3-(4-chloro-3-(trifluoromethyl)phenyl)ureido)phenoxy)-N-(7-(hydroxyamino)-7-oxoheptyl)picolinamide] the IC50 (HDAC) was 100 to 1000 nM.
`O=C(CCCCCOc1cc(Oc2ccc(NC(=O)Nc3ccc(Cl)c(C(F)(F)F)c3)cc2)ccn1)NO` [Compound 33] showed an IC50 (HDAC) of 1000 to 10000 nM.
`O=C(CCCC(=O)NCc1cc(Oc2ccc(NC(=O)Nc3ccc(Cl)c(C(F)(F)F)c3)cc2)ccn1)NO` [Compound 20, N^1-((4-(4-(3-(4-chloro-3(trifluoromethyl)phenyl)ureido)phenoxy)pyridin-2-yl)methyl)-N^5-hydroxyglutaramide] showed an IC50 (HDAC) of 100 to 1000 nM and an IC50 (VEGFR2) of less than 100 nM.
`O=C(CCCCCCC(=O)Nc1cc(Oc2ccc(NC(=O)Nc3ccc(Cl)c(C(F)(F)F)c3)cc2)ccn1)NO` [Compound 12, 1-(4-chloro-3-(trifluoromethyl)phenyl)-3-(4-(2-(8-(hydroxyamino)-8-oxooctanamido)pyridin-4-yloxy)phenyl)urea] was tested, and the IC50 (cKit) was less than 100 nM, the IC50 (C-Raf) was less than 100 nM and the IC50 (HDAC) was 100 to 1000 nM. The IC50 (PDGFRβ) was less than 100 nM and the IC50 (VEGFR2) was less than 100 nM.
For `O=C(CCCOc1cc(Oc2ccc(NC(=O)Nc3ccc(Cl)c(C(F)(F)F)c3)cc2)ccn1)NO` [Compound 31], the IC50 (HDAC) was 1000 to 10000 nM.
